Reference: PubChem BioAssay AID330 (DTP/NCI, 2004)
“And” between values parts separate entries of the source, which are not always exact repeats. Equal values may be shown once. Toxic doses and inconclusive results are not listed.

System: P388 leukemia ip, CD2F1 mice, survival T/C
Assay: NCI In Vivo Anticancer Drug Screen. Data for tumor model P388 Leukemia (intraperitoneal) in CD2F1 (CDF1) mice
Conditions: endpoint: median survival time, higher = longer survival
Procedure, shortened: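 Mice carrying the transplanted tumor received test compound or vehicle. Survival was recorded in each group, and the value is the treated-group measurement divided by that of the vehicle-treated control group.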

[1] = dose: 50.0 mg/kg/injection, schedule: Q01DX009 (ip), vehicle: saline
[2] = dose: 100.0 mg/kg/injection, schedule: Q01DX009 (ip), vehicle: saline
[3] = dose: 200.0 mg/kg/injection, schedule: Q01DX009 (ip), vehicle: saline
[4] = dose: 60.0 mg/kg/injection, schedule: Q01DX005 (ip), vehicle: saline with Tween-80
[5] = dose: 120.0 mg/kg/injection, schedule: Q01DX005 (ip), vehicle: saline with Tween-80
[6] = dose: 240.0 mg/kg/injection, schedule: Q01DX005 (ip), vehicle: saline with Tween-80
[7] = dose: 12.5 mg/kg/injection, schedule: Q01DX009 (ip), vehicle: saline
[8] = dose: 25.0 mg/kg/injection, schedule: Q01DX009 (ip), vehicle: saline
[9] = dose: 50.0 mg/kg/injection, schedule: Q01DX005 (ip), vehicle: saline with Tween-80
[10] = dose: 100.0 mg/kg/injection, schedule: Q01DX005 (ip), vehicle: saline with Tween-80
[11] = dose: 200.0 mg/kg/injection, schedule: Q01DX005 (ip), vehicle: saline with Tween-80
[12] = dose: 25.0 mg/kg/injection, schedule: Q01DX009 (ip), vehicle: saline with Tween-80
[13] = dose: 50.0 mg/kg/injection, schedule: Q01DX009 (ip), vehicle: saline with Tween-80

N#C/C(=C\c1cccs1)C(N)=S
T/C [1]: 100 % of control | T/C [2]: 102 % of control | T/C [3]: 100 % of control

CC(=O)OCC12CCC(C)=CC1O[C@H]1[C@@H](OC(C)=O)[C@H](OC(C)=O)[C@]2(C)[C@@]12CO2 (stereo not given in full)
T/C (dose: 0.2 mg/kg/injection, schedule: Q01DX009 (ip), vehicle: saline + alcohol): 115 % of control | T/C (dose: 0.8 mg/kg/injection, schedule: Q01DX009 (ip), vehicle: saline + alcohol): 173 % of control | T/C (dose: 2.0 mg/kg/injection, schedule: Q04DX003 (ip), vehicle: saline + alcohol): 120 % of control

CC1=C2CC/C(C)=C/CCC3(C)OC3CC/C(C)=C/C2OC1=O (stereo not given)
T/C (dose: 1.25 mg/kg/injection, schedule: Q01DX009 (ip), vehicle: other): 118 % of control | T/C (dose: 2.0 mg/kg/injection, schedule: Q01DX009 (ip), vehicle: Klucel (hydroxypropylcellulose) (HPC)): 91 % of control | T/C (dose: 2.5 mg/kg/injection, schedule: Q01DX009 (ip), vehicle: other): 105 % of control | T/C (dose: 4.0 mg/kg/injection, schedule: Q01DX009 (ip), vehicle: Klucel (hydroxypropylcellulose) (HPC)): 89 % of control | T/C (dose: 5.0 mg/kg/injection, schedule: Q01DX009 (ip), vehicle: other): 112 % of control | T/C (dose: 10.0 mg/kg/injection, schedule: Q01DX009 (ip), vehicle: saline with Tween-80): 92 % of control | T/C (dose: 16.0 mg/kg/injection, schedule: Q01DX009 (ip), vehicle: Klucel (hydroxypropylcellulose) (HPC)): 94 % of control | T/C (dose: 20.0 mg/kg/injection, schedule: Q01DX009 (ip), vehicle: saline with Tween-80): 89 % of control | T/C (dose: 32.0 mg/kg/injection, schedule: Q01DX009 (ip), vehicle: Klucel (hydroxypropylcellulose) (HPC)): 94 % of control | T/C (dose: 40.0 mg/kg/injection, schedule: Q01DX009 (ip), vehicle: saline with Tween-80): 108 % of control

COC(=O)c1nnn(-c2ccccc2C(C)C)c1C(=O)c1ccccc1
T/C [4]: 94 % of control | T/C [5]: 109 % of control | T/C [6]: 104 % of control

COc1ccc(CSC(=S)Nc2ccc(C(F)(F)F)cc2)cc1
T/C (dose: 50.0 mg/kg/injection, schedule: Q01DX009 (ip), vehicle: suspension in saline): 110 % of control | T/C (dose: 100.0 mg/kg/injection, schedule: Q01DX009 (ip), vehicle: suspension in saline): 101 % of control | T/C (dose: 200.0 mg/kg/injection, schedule: Q01DX009 (ip), vehicle: suspension in saline): 105 % of control

COC(=O)C1([Se]c2ccccc2)CCN2CCC(OCc3ccccc3[N+](=O)[O-])C21 (stereo not given)
T/C (dose: 25.0 mg/kg/injection, schedule: Q01DX001 (ip), vehicle: saline with Tween-80): 90 % of control | T/C (dose: 50.0 mg/kg/injection, schedule: Q01DX001 (ip), vehicle: saline with Tween-80): 105 % of control | T/C (dose: 100.0 mg/kg/injection, schedule: Q01DX001 (ip), vehicle: saline with Tween-80): 108 % of control and 89 % of control

O=C(C[n+]1ccccc1)c1ccccc1
T/C [7]: 105 % of control | T/C [8]: 104 % of control | T/C [1]: 96 % of control

CCCCn1cnc2c(SC)ncnc21
T/C (dose: 22.0 mg/kg/injection, schedule: Q04DX003 (ip), vehicle: saline with Tween-80): 110 % of control | T/C (dose: 33.0 mg/kg/injection, schedule: Q04DX003 (ip), vehicle: saline with Tween-80): 110 % of control | T/C (dose: 50.0 mg/kg/injection, schedule: Q04DX003 (ip), vehicle: saline with Tween-80): 115 % of control | T/C (dose: 75.0 mg/kg/injection, schedule: Q04DX003 (ip), vehicle: saline with Tween-80): 110 % of control

Cc1ccc(NS(=O)(=O)c2ccc3ccccc3c2)c(C)c1
T/C (dose: 100.0 mg/kg/injection, schedule: Q04DX003 (ip), vehicle: saline with Tween-80): 100 % of control | T/C (dose: 200.0 mg/kg/injection, schedule: Q04DX003 (ip), vehicle: saline with Tween-80): 100 % of control | T/C (dose: 400.0 mg/kg/injection, schedule: Q04DX003 (ip), vehicle: saline with Tween-80): 104 % of control

COc1cc(C2c3cc4c(cc3OC3(O)CCCC23)OCO4)cc(OC)c1OC (stereo not given)
T/C [4]: 91 % of control | T/C [5]: 93 % of control | T/C [6]: 99 % of control

O=C(CNC(=O)Nc1cccc([N+](=O)[O-])c1)NNC(=O)Nc1ccccc1F
T/C [4]: 101 % of control | T/C [5]: 101 % of control | T/C [6]: 99 % of control

CCOC(=O)C1=NN(c2ccccc2)CC1C(=O)OC (stereo not given)
T/C (dose: 50.0 mg/kg/injection, schedule: Q04DX002 (ip), vehicle: suspension in saline): 103 % of control | T/C (dose: 100.0 mg/kg/injection, schedule: Q04DX002 (ip), vehicle: suspension in saline): 100 % of control | T/C (dose: 200.0 mg/kg/injection, schedule: Q04DX002 (ip), vehicle: suspension in saline): 98 % of control

[O-][n+]1ccccc1C1CO1 (stereo not given)
T/C (dose: 6.25 mg/kg/injection, schedule: Q01DX009 (ip), vehicle: saline): 105 % of control | T/C [7]: 103 % of control | T/C [8]: 102 % of control | T/C [2]: 88 % of control

CC(C)Cc1cc(C(F)(F)F)nc(NNc2nc(CC(C)C)cc(C(F)(F)F)n2)n1
T/C (dose: 50.0 mg/kg/injection, schedule: Q01DX009 (ip), vehicle: Klucel (hydroxypropylcellulose) (HPC)): 90 % of control | T/C (dose: 100.0 mg/kg/injection, schedule: Q01DX009 (ip), vehicle: Klucel (hydroxypropylcellulose) (HPC)): 87 % of control

COc1ccc(C(c2cc3c(cc2O)OCO3)N2CCCCC2)cc1OC (stereo not given)
T/C [4]: 107 % of control | T/C [5]: 110 % of control | T/C [6]: 120 % of control

O=C(CCCCC(=O)Nc1ccc2c(=O)c3ccccc3[nH]c2c1)Nc1ccc2c(=O)c3ccccc3[nH]c2c1
T/C [9]: 99 % of control | T/C [10]: 104 % of control | T/C [11]: 104 % of control

OCC(O)COCCCCCCCCCCCCCC1C=CCC1 (stereo not given)
T/C (dose: 100.0 mg/kg/injection, schedule: Q04DX003 (ip), vehicle: saline): 95 % of control | T/C (dose: 200.0 mg/kg/injection, schedule: Q04DX003 (ip), vehicle: saline): 89 % of control | T/C (dose: 400.0 mg/kg/injection, schedule: Q04DX003 (ip), vehicle: saline): 96 % of control

N#CC1=C(C#N)C(=O)c2ccccc2C1=O
T/C [12]: 104 % of control | T/C [13]: 104 % of control

CN(C)CCCCNc1c2c(nc3c(Cl)cccc13)CCC2
T/C [9]: 99 % of control | T/C [10]: 105 % of control | T/C [11]: 99 % of control

C=C(C)C(=O)Oc1cccccc1=O
T/C [9]: 102 % of control | T/C [10]: 106 % of control | T/C [11]: 114 % of control

C=C(C)c1c(C)nc2c(N)nc(N)[n+]([O-])c2[n+]1[O-]
T/C (dose: 37.5 mg/kg/injection, schedule: Q01DX009 (ip), vehicle: saline): 108 % of control | T/C (dose: 75.0 mg/kg/injection, schedule: Q01DX009 (ip), vehicle: saline): 118 % of control | T/C (dose: 150.0 mg/kg/injection, schedule: Q01DX009 (ip), vehicle: saline): 101 % of control

O=C1C2Nc3ccccc3N=C2OC1c1cccc([N+](=O)[O-])c1 (stereo not given)
T/C (dose: 60.0 mg/kg/injection, schedule: Q01DX005 (ip), vehicle: Klucel + Tween-80): 107 % of control | T/C (dose: 120.0 mg/kg/injection, schedule: Q01DX005 (ip), vehicle: Klucel + Tween-80): 97 % of control | T/C (dose: 240.0 mg/kg/injection, schedule: Q01DX005 (ip), vehicle: Klucel + Tween-80): 91 % of control

Cc1cc2c(cc1S(=O)(=O)O)C1C(C3C2C2(Cl)C(Cl)=C(Cl)C3(Cl)C2(Cl)Cl)C2(Cl)C(Cl)=C(Cl)C1(Cl)C2(Cl)Cl (stereo not given)
T/C [1]: 101 % of control | T/C [2]: 92 % of control | T/C [3]: 92 % of control

COc1ccc(Cc2c3cc(OC)c(OC)cc3cc[n+]2CC(=O)c2ccc(Cl)cc2)cc1OC
T/C (dose: 50.0 mg/kg/injection, schedule: Q01DX005 (ip), vehicle: Klucel (hydroxypropylcellulose) (HPC)): 105 % of control | T/C (dose: 100.0 mg/kg/injection, schedule: Q01DX005 (ip), vehicle: Klucel (hydroxypropylcellulose) (HPC)): 111 % of control

COc1ccc(OC)c(NC(=O)CCCC(=O)CC(=O)c2cccnc2)c1
T/C [4]: 103 % of control | T/C [5]: 103 % of control | T/C [6]: 101 % of control

CC(c1ccccc1)n1ccnc1CO (stereo not given)
T/C [4]: 103 % of control | T/C [5]: 107 % of control | T/C [6]: 110 % of control

O=C1C2=C(Nc3ccccc3N2)OC1c1ccccc1O (stereo not given)
T/C (dose: 60.0 mg/kg/injection, schedule: Q01DX005 (ip), vehicle: Klucel (hydroxypropylcellulose) (HPC)): 98 % of control | T/C (dose: 120.0 mg/kg/injection, schedule: Q01DX005 (ip), vehicle: Klucel (hydroxypropylcellulose) (HPC)): 91 % of control | T/C (dose: 240.0 mg/kg/injection, schedule: Q01DX005 (ip), vehicle: Klucel (hydroxypropylcellulose) (HPC)): 91 % of control

CC1C[As+](c2ccccc2)(c2ccccc2)CC(C)N1C.[O-][Cl+3]([O-])([O-])[O-] (stereo not given)
T/C [12]: 100 % of control | T/C [13]: 104 % of control | T/C (dose: 100.0 mg/kg/injection, schedule: Q01DX009 (ip), vehicle: saline with Tween-80): 106 % of control
